Experimental data taken from the supplement of paper PMC10307832.

Experiments:
Assay in all cases: relative viability (nuclei count vs DMSO), 5 days (fraction); higher = more cells survive
201T = system: 201T
Method in brief: (§1)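 Values are medians from duplicate plates. Each reflects relative viability, defined as the nuclei count of treated wells over that of vehicle wells. Lung cancer cell lines in 1536-well plates were pin-tool dosed one day after seeding with one drug alone or with a fixed anchor-drug dose plus five library-drug doses (not always all listed) in √10 steps, then fixed, stained and imaged at 4× after 5 days.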

A-427 = system: A-427
Method in brief: as §1

COR-L23 = system: COR-L23
Method in brief: as §1

H3255 = system: H3255
Method in brief: as §1

LCLC-103H = system: LCLC-103H
Method in brief: as §1

LCLC-97TM1 = system: LCLC-97TM1
Method in brief: as §1

LK-2 = system: LK-2
Method in brief: as §1

LU99A = system: LU99A
Method in brief: as §1

NCI-H1650 = system: NCI-H1650
Method in brief: as §1

NCI-H1651 = system: NCI-H1651
Method in brief: as §1

NCI-H1793 = system: NCI-H1793
Method in brief: as §1

NCI-H1944 = system: NCI-H1944
Method in brief: as §1

NCI-H2347 = system: NCI-H2347
Method in brief: as §1

NCI-H23 = system: NCI-H23
Method in brief: as §1

NCI-H460 = system: NCI-H460
Method in brief: as §1

NCI-H650 = system: NCI-H650
Method in brief: as §1

NCI-H727 = system: NCI-H727
Method in brief: as §1

NCI-H838 = system: NCI-H838
Method in brief: as §1

PC-14 = system: PC-14
Method in brief: as §1

PC-3 [JPC-3] = system: PC-3 [JPC-3]
Method in brief: as §1

RERF-LC-KJ = system: RERF-LC-KJ
Method in brief: as §1

SW 1573 = system: SW 1573
Method in brief: as §1

SW 900 = system: SW 900
Method in brief: as §1

COc1cc(N2CCC(C(N)=O)CC2)ccc1Nc1nc(N)c(Cl)c(Nc2ccccc2S(=O)(=O)C(C)C)n1 [HG-5-88-01] + CC(=O)Nc1cccc(-n2c(=O)n(C3CC3)c(=O)c3c(Nc4ccc(I)cc4F)n(C)c(=O)c(C)c32)c1 [Trametinib] (partner 0.02 µM)
relative viability (201T; first compound 0.04 µM): 0.697 | relative viability (201T; first compound 0.1265 µM): 0.699 | relative viability (201T; first compound 1.265 µM): 0.694 | relative viability (201T; first compound 4 µM): 0.782 | relative viability (A-427; first compound 0.04 µM): 0.8 | relative viability (A-427; first compound 0.1265 µM): 0.754 | relative viability (A-427; first compound 0.4 µM): 0.749 | relative viability (A-427; first compound 1.265 µM): 0.662 | relative viability (A-427; first compound 4 µM): 0.487 | relative viability (COR-L23; first compound 0.04 µM): 0.502 | relative viability (COR-L23; first compound 0.1265 µM): 0.664 | relative viability (COR-L23; first compound 0.4 µM): 0.51 | relative viability (COR-L23; first compound 1.265 µM): 0.488 | relative viability (COR-L23; first compound 4 µM): 0.368 | relative viability (H3255; first compound 0.04 µM): 0.563 | relative viability (H3255; first compound 0.1265 µM): 0.697 | relative viability (H3255; first compound 0.4 µM): 0.619 | relative viability (H3255; first compound 4 µM): 0.539 | relative viability (LCLC-103H; first compound 0.04 µM): 0.693 | relative viability (LCLC-103H; first compound 0.1265 µM): 0.649 | relative viability (LCLC-103H; first compound 0.4 µM): 0.52 | relative viability (LCLC-103H; first compound 1.265 µM): 0.69 | relative viability (LCLC-103H; first compound 4 µM): 0.732 | relative viability (LCLC-97TM1; first compound 0.04 µM): 0.154 | relative viability (LCLC-97TM1; first compound 0.1265 µM): 0.211 | relative viability (LCLC-97TM1; first compound 0.4 µM): 0.188 | relative viability (LCLC-97TM1; first compound 1.265 µM): 0.147 | relative viability (LCLC-97TM1; first compound 4 µM): 0.136 | relative viability (LK-2; first compound 0.04 µM): 0.927 | relative viability (LK-2; first compound 0.1265 µM): 0.911 | relative viability (LK-2; first compound 0.4 µM): 0.728 | relative viability (LK-2; first compound 4 µM): 0.514 | relative viability (LU99A; first compound 0.04 µM): 0.584 | relative viability (LU99A; first compound 0.1265 µM): 0.565 | relative viability (LU99A; first compound 0.4 µM): 0.543 | relative viability (LU99A; first compound 1.265 µM): 0.429 | relative viability (LU99A; first compound 4 µM): 0.493 | relative viability (NCI-H1650; first compound 0.04 µM): 0.586 | relative viability (NCI-H1650; first compound 0.1265 µM): 0.633 | relative viability (NCI-H1650; first compound 0.4 µM): 0.559 | relative viability (NCI-H1650; first compound 1.265 µM): 0.386 | relative viability (NCI-H1650; first compound 4 µM): 0.532 | relative viability (NCI-H1651; first compound 0.04 µM): 0.918 | relative viability (NCI-H1651; first compound 0.1265 µM): 0.862 | relative viability (NCI-H1651; first compound 0.4 µM): 0.799 | relative viability (NCI-H1651; first compound 1.265 µM): 0.744 | relative viability (NCI-H1651; first compound 4 µM): 0.957 | relative viability (NCI-H1793; first compound 0.04 µM): 0.433 | relative viability (NCI-H1793; first compound 0.1265 µM): 0.381 | relative viability (NCI-H1793; first compound 0.4 µM): 0.462 | relative viability (NCI-H1793; first compound 1.265 µM): 0.432 | relative viability (NCI-H1793; first compound 4 µM): 0.578 | relative viability (NCI-H1944; first compound 0.04 µM): 0.386 | relative viability (NCI-H1944; first compound 0.1265 µM): 0.48 | relative viability (NCI-H1944; first compound 0.4 µM): 0.396 | relative viability (NCI-H1944; first compound 1.265 µM): 0.398 | relative viability (NCI-H1944; first compound 4 µM): 0.398 | relative viability (NCI-H2347; first compound 0.04 µM): 0.324 | relative viability (NCI-H2347; first compound 0.1265 µM): 0.284 | relative viability (NCI-H2347; first compound 0.4 µM): 0.227 | relative viability (NCI-H2347; first compound 1.265 µM): 0.229 | relative viability (NCI-H2347; first compound 4 µM): 0.247 | relative viability (NCI-H23; first compound 0.04 µM): 0.383 | relative viability (NCI-H23; first compound 0.1265 µM): 0.336 | relative viability (NCI-H23; first compound 0.4 µM): 0.366 | relative viability (NCI-H23; first compound 1.265 µM): 0.28 | relative viability (NCI-H23; first compound 4 µM): 0.247 | relative viability (NCI-H460; first compound 0.04 µM): 0.131 | relative viability (NCI-H460; first compound 0.1265 µM): 0.124 | relative viability (NCI-H460; first compound 0.4 µM): 0.13 | relative viability (NCI-H460; first compound 1.265 µM): 0.0779 | relative viability (NCI-H460; first compound 4 µM): 0.123 | relative viability (NCI-H650; first compound 0.04 µM): 1.09 | relative viability (NCI-H650; first compound 0.1265 µM): 1.11 | relative viability (NCI-H650; first compound 0.4 µM): 0.987 | relative viability (NCI-H650; first compound 1.265 µM): 0.696 | relative viability (NCI-H650; first compound 4 µM): 0.786 | relative viability (NCI-H727; first compound 0.04 µM): 0.379 | relative viability (NCI-H727; first compound 0.1265 µM): 0.394 | relative viability (NCI-H727; first compound 0.4 µM): 0.399 | relative viability (NCI-H727; first compound 4 µM): 0.364 | relative viability (NCI-H838; first compound 0.04 µM): 0.518 | relative viability (NCI-H838; first compound 0.1265 µM): 0.439 | relative viability (NCI-H838; first compound 0.4 µM): 0.435 | relative viability (NCI-H838; first compound 1.265 µM): 0.409 | relative viability (NCI-H838; first compound 4 µM): 0.354 | relative viability (PC-14; first compound 0.04 µM): 0.825 | relative viability (PC-14; first compound 0.1265 µM): 0.836 | relative viability (PC-14; first compound 0.4 µM): 0.626 | relative viability (PC-14; first compound 1.265 µM): 0.28 | relative viability (PC-14; first compound 4 µM): 0.0722 | relative viability (PC-3 [JPC-3]; first compound 0.04 µM): 0.708 | relative viability (PC-3 [JPC-3]; first compound 0.1265 µM): 0.738 | relative viability (PC-3 [JPC-3]; first compound 0.4 µM): 0.684 | relative viability (PC-3 [JPC-3]; first compound 1.265 µM): 0.448 | relative viability (PC-3 [JPC-3]; first compound 4 µM): 0.361 | relative viability (RERF-LC-KJ; first compound 0.04 µM): 0.79 | relative viability (RERF-LC-KJ; first compound 0.1265 µM): 0.902 | relative viability (RERF-LC-KJ; first compound 0.4 µM): 0.744 | relative viability (RERF-LC-KJ; first compound 1.265 µM): 0.713 | relative viability (RERF-LC-KJ; first compound 4 µM): 0.714 | relative viability (SW 1573; first compound 0.04 µM): 0.598 | relative viability (SW 1573; first compound 0.1265 µM): 0.533 | relative viability (SW 1573; first compound 0.4 µM): 0.581 | relative viability (SW 1573; first compound 1.265 µM): 0.464 | relative viability (SW 1573; first compound 4 µM): 0.52 | relative viability (SW 900; first compound 0.04 µM): 0.941 | relative viability (SW 900; first compound 0.1265 µM): 0.943 | relative viability (SW 900; first compound 0.4 µM): 0.875 | relative viability (SW 900; first compound 1.265 µM): 0.627 | relative viability (SW 900; first compound 4 µM): 0.685
